Reference: the NIST ThermoML archive (doi:10.1016/j.jct.2012.08.022)
Numbers after ± are expanded uncertainties.

Legend:
[1] = activity coefficient (dimensionless); of the first substance listed, at infinite dilution; xn = mol fraction of the nth substance listed; conditions: Liquid, Chromatography, x1 = 0
[2] = 101.33 kPa, Liquid, vibrating tube

Structure (SMILES) | activity coefficient ([1]; 313 K) | activity coefficient ([1]; 333 K) | activity coefficient ([1]; 353 K) | activity coefficient ([1]; 373 K) | activity coefficient ([1]; 393 K) | activity coefficient ([1]; 413 K) | also measured
Cc1ccccc1 [toluene] + Cn1cc[n+](C[Si](C)(C)C)c1.[Cl-] | 4.1 ± 0.28 | 3.8 ± 0.26 | 4.07 ± 0.28 | 4.67 ± 0.32 | 5.46 ± 0.37 | 6.21 ± 0.42 | –
CCCCn1cc[n+](C)c1.O=S(=O)([O-])O [1-butyl-3-methylimidazolium hydrogen sulfate] | – | – | – | – | – | – | mass density ([2]; 303 K): 1275.9 ± 0.4 kg/m3; mass density ([2]; 308 K): 1272.5 ± 0.4 kg/m3; mass density ([2]; 313 K): 1269 ± 0.4 kg/m3; mass density ([2]; 318 K): 1266.4 ± 0.4 kg/m3; mass density ([2]; 323 K): 1263.4 ± 0.4 kg/m3; mass density ([2]; 328 K): 1260.4 ± 0.4 kg/m3; mass density ([2]; 333 K): 1257.4 ± 0.4 kg/m3; mass density ([2]; 338 K): 1254.5 ± 0.4 kg/m3; mass density ([2]; 343 K): 1251.5 ± 0.4 kg/m3; mass density ([2]; 348 K): 1248.6 ± 0.4 kg/m3; mass density ([2]; 353 K): 1245.7 ± 0.4 kg/m3; mass density ([2]; 358 K): 1242.8 ± 0.4 kg/m3; mass density ([2]; 363 K): 1240 ± 0.4 kg/m3
C1COCCO1 [1,4-dioxane] + CCCCn1cc[n+](C)c1.O=S(=O)([O-])O | 2.72 ± 0.19 | 2.78 ± 0.19 | 2.99 ± 0.2 | 3.36 ± 0.23 | 3.8 ± 0.26 | 4.41 ± 0.3 | –
C[N+](=O)[O-] [nitromethane] + Cn1cc[n+](C[Si](C)(C)C)c1.[Cl-] | 0.449 ± 0.036 | 0.442 ± 0.036 | 0.477 ± 0.037 | 0.527 ± 0.039 | 0.559 ± 0.04 | 0.599 ± 0.042 | –
CC#N [acetonitrile] + CCCCn1cc[n+](C)c1.O=S(=O)([O-])O | 1.23 ± 0.08 | 1.31 ± 0.09 | 1.28 ± 0.08 | 1.26 ± 0.08 | 1.24 ± 0.08 | 1.19 ± 0.08 | –
C[N+](=O)[O-] [nitromethane] + CCCCn1cc[n+](C)c1.O=S(=O)([O-])O | 0.826 ± 0.053 | 0.771 ± 0.05 | 0.83 ± 0.053 | 0.939 ± 0.059 | 1.08 ± 0.07 | 1.18 ± 0.08 | –
COCCOC [1,2-dimethoxyethane] + CCCCn1cc[n+](C)c1.O=S(=O)([O-])O | 4.76 ± 0.32 | 5.61 ± 0.38 | 7.03 ± 0.48 | 8.44 ± 0.58 | 10 ± 0.7 | 11.6 ± 0.8 | –
COCCOC [1,2-dimethoxyethane] + Cn1cc[n+](C[Si](C)(C)C)c1.[Cl-] | 3.42 ± 0.23 | 3.49 ± 0.24 | 3.56 ± 0.24 | 3.89 ± 0.26 | 3.89 ± 0.26 | 3.77 ± 0.26 | –
C1COCCO1 [1,4-dioxane] + Cn1cc[n+](C[Si](C)(C)C)c1.[Cl-] | 2.14 ± 0.15 | 1.95 ± 0.13 | 2.07 ± 0.14 | 2.13 ± 0.14 | 2.16 ± 0.15 | 2.28 ± 0.16 | –
c1ccccc1 [benzene] + CCCCn1cc[n+](C)c1.O=S(=O)([O-])O | 5.11 ± 0.35 | 4.95 ± 0.34 | 5.36 ± 0.37 | 5.28 ± 0.36 | 5.49 ± 0.37 | 5.69 ± 0.39 | –
Cc1ccccc1 [toluene] + CCCCn1cc[n+](C)c1.O=S(=O)([O-])O | 8.51 ± 0.58 | 9.22 ± 0.63 | 9.7 ± 0.66 | 11.1 ± 0.8 | 13 ± 0.9 | 13.9 ± 1 | –
CC#N [acetonitrile] + Cn1cc[n+](C[Si](C)(C)C)c1.[Cl-] | 0.629 ± 0.043 | 0.659 ± 0.045 | 0.695 ± 0.047 | 0.712 ± 0.047 | 0.73 ± 0.048 | 0.756 ± 0.05 | –
Cn1cc[n+](C[Si](C)(C)C)c1.[Cl-] [1-methyl-3-(trimethylsilylmethyl)imidazolium chloride] | – | – | – | – | – | – | mass density ([2]; 313 K): 1055.9 ± 1 kg/m3; mass density ([2]; 318 K): 1053 ± 0.9 kg/m3; mass density ([2]; 323 K): 1050.1 ± 0.9 kg/m3; mass density ([2]; 328 K): 1047.2 ± 0.9 kg/m3; mass density ([2]; 333 K): 1044.1 ± 0.9 kg/m3; mass density ([2]; 338 K): 1040.9 ± 0.9 kg/m3; mass density ([2]; 343 K): 1038.1 ± 0.9 kg/m3; mass density ([2]; 348 K): 1035.3 ± 0.9 kg/m3; mass density ([2]; 353 K): 1032.4 ± 0.9 kg/m3; mass density ([2]; 358 K): 1029.6 ± 0.9 kg/m3; mass density ([2]; 363 K): 1026.8 ± 0.9 kg/m3

Continued, in another order:

activity coefficient ([1]; 313 K) | activity coefficient ([1]; 333 K) | activity coefficient ([1]; 353 K) | activity coefficient ([1]; 373 K) | activity coefficient ([1]; 393 K) | activity coefficient ([1]; 413 K) | Structure (SMILES) | also measured
– | 0.153 ± 0.029 | 0.158 ± 0.029 | 0.163 ± 0.029 | – | – | CCO [ethanol] + Cn1cc[n+](C[Si](C)(C)C)c1.[Cl-] | –
– | 0.0747 ± 0.03 | 0.0878 ± 0.03 | 0.102 ± 0.03 | – | – | CCCO [propan-1-ol] + Cn1cc[n+](C[Si](C)(C)C)c1.[Cl-] | –
– | 0.0373 | 0.0421 | 0.0472 | – | – | CO [methanol] + Cn1cc[n+](C[Si](C)(C)C)c1.[Cl-] | –
0.112 ± 0.03 | 0.153 ± 0.029 | 0.2 ± 0.029 | 0.253 ± 0.03 | 0.301 ± 0.031 | 0.338 ± 0.032 | ClC(Cl)Cl [trichloromethane] + Cn1cc[n+](C[Si](C)(C)C)c1.[Cl-] | –
9.02 ± 0.62 | 9.95 ± 0.68 | 11.7 ± 0.8 | 12.8 ± 0.9 | 13.8 ± 0.9 | – | CCOC(C)=O [ethyl acetate] + CCCCn1cc[n+](C)c1.O=S(=O)([O-])O | –
4.4 ± 0.3 | 4.27 ± 0.29 | 5.14 ± 0.35 | 6.96 ± 0.47 | 8.26 ± 0.56 | – | CCOC(C)=O [ethyl acetate] + Cn1cc[n+](C[Si](C)(C)C)c1.[Cl-] | –
2.44 ± 0.17 | 2.3 ± 0.16 | 2.6 ± 0.18 | 2.94 ± 0.2 | 3.85 ± 0.26 | 4.36 ± 0.3 | c1ccccc1 [benzene] + Cn1cc[n+](C[Si](C)(C)C)c1.[Cl-] | –
5.1 ± 0.35 | 5.61 ± 0.38 | 6.6 ± 0.45 | 7.34 ± 0.5 | 8.55 ± 0.58 | – | C1CCOC1 [tetrahydrofuran] + CCCCn1cc[n+](C)c1.O=S(=O)([O-])O | –
3.09 ± 0.21 | 2.93 ± 0.2 | 3.7 ± 0.25 | 4.31 ± 0.29 | 4.79 ± 0.33 | – | C1CCOC1 [tetrahydrofuran] + Cn1cc[n+](C[Si](C)(C)C)c1.[Cl-] | –
